Read-outs that look alike come from different tables or passages of the source.
Legend:
[1] = test system: Co5841 patient-derived colorectal cancer model; assay: Xenograft anti-tumor efficacy; format: in vivo, mice; details: tumor weight, TPP-2090 10 mg/kg twice weekly for 4 weeks
Procedure: (§1) After tumor growth to a size of approximately 40 mm^2 mice were randomized into control and treatment groups with a respective group size of n=8-10. Mice were treated with various doses of anti-TWEAKR antibodies diluted in PBS by intravenous injection (i.v.) into the tail vein with a twice per week schedule (q4dx3: applications twice per week, three applications in total; q4dx8: applications twice per week, eight applications in total). Combination therapy partners such as Regorafenib (10 mg/kg daily, per os) and the PI3K-inhibitor 1 (10 mg/kg, BID, 2d on, 5d off (applications twice daily on two consecutive days, followed by five days without treatment), i.v.) were diluted in their respective formulations whereas the standard of care therapies Irinotecan (5 mg/kg, 4d on, 3d off (applications once daily on four consecutive days followed by three days without treatment) i.v.) and Paclitaxel (16 mg/kg, q7dx4 (applications once per week, four applications in total), i.v.) were diluted in 0.9% NaCl. Animals injected with PBS served as the control (vehicle) group. The applied volume of the compounds was 5 ml/kg body weight per mouse.
(§2) Tumor growth was monitored 2-3 times per week by caliper measurement (length×width in mm) as well as body weight (in g). At the end of study tumors were dissected, weighted and used for the calculation of tumor-to-control (T/C) ratios (mean tumor weight of treated animals divided by mean tumor weight of control/vehicle animals). […] 2×10^6 tumor cells in 100% Matrigel were s.c. inoculated in female nude mice. After 7d established tumors with a size of about 40 mm^2 were treated with 0.3 mg/kg, 1 mg/kg and 3 mg/kg of antibodies (i.v., q4dx3: applications twice per week, three applications in total).
(§3) Animal studies were conducted as described in example 8 for further human colorectal cancer tumor cell lines Colo205 and LoVo and for further human colorectal cancer patient-derived models Co7553, Co5896, Co5676, Co5841, CXF 1103 and CXF 533. […] The formulation of regorafenib is described in example 8.

[2] = test system: Co5676 patient-derived colorectal cancer model; assay: Xenograft anti-tumor efficacy; format: in vivo, mice; details: tumor area, TPP-2090 10 mg/kg twice weekly for 4 weeks
Procedure: as §1, §2, §3

[3] = test system: CXF533 patient-derived colorectal cancer model; assay: Xenograft anti-tumor efficacy; format: in vivo, mice; details: tumor weight, TPP-2090 10 mg/kg twice weekly for 4 weeks
Procedure: as §1, §2, §3

[4] = test system: CXF1103 patient-derived colorectal cancer model; assay: Xenograft anti-tumor efficacy; format: in vivo, mice; details: tumor weight, TPP-2090 10 mg/kg twice weekly for 4 weeks
Procedure: as §1, §2, §3

[5] = test system: Colo205 xenograft (colorectal cancer); assay: Xenograft anti-tumor efficacy; format: in vivo, mice; details: tumor weight, TPP-2090 10 mg/kg twice weekly for 4 weeks
Procedure: as §1, §2, §3

[6] = test system: LoVo xenograft (colorectal cancer); assay: Xenograft anti-tumor efficacy; format: in vivo, mice; details: tumor weight, TPP-2090 10 mg/kg twice weekly for 4 weeks
Procedure: as §1, §2, §3

[7] = test system: Co7553 patient-derived colorectal cancer model; assay: Xenograft anti-tumor efficacy; format: in vivo, mice; details: tumor weight, TPP-2090 10 mg/kg twice weekly for 4 weeks
Source text: Tumor growth was monitored 2-3 times per week by caliper measurement (length×width in mm) as well as body weight (in g). […]

Lovo cells = assay: Inhibition of proliferation (Cell Titer Glo); format: cell-based, human; details: 72h, 100 μg/ml antibody or *100 ng/ml TWEAK
Procedure: (§4) Therefore cells were plated in 96well plates in 750 assay medium (growth media from Table 21, plus 100 ng/ml IFN gamma for 786-O cells) at the following cell numbers: WiDr cells 3000 cells/well, 786-O cells 2500 cells/well. 24 h later cells were incubated with anti-TWEAKR antibodies (see Table 26), recombinant human TWEAK or isotype control IgG (not shown) at the indicated concentrations (antibodies from 0.03-300 μg/ml, TWEAK 100 or 300 ng/ml). At the time of antibody addition cell viability was determined in sister plates (time point zero): therefore 750/well CTG solution (Promega Cell Titer Glo solution (catalog # G755B and G756B) was added to the cells, incubated for 10 minutes and luminescence was read on a Victor V (Perkin Elmer). 96 h after incubation with the agents, cell viability was determined in the assay plates by addition of 100 μl/well CTG solution, 10 min incubation and reading of luminescence. Proliferation in control wells was calculated by subtracting time zero values from the luminescence values in the untreated control wells. % of cell proliferation was calculated in the compound treated wells as compared to the untreated control wells.
(§5) To evaluate, whether this strong anti-proliferative activity can also be observed in a broader cell panel, in addition LOVO, NCI-H1975, SW-480 (all 3000 cells/well), HT-29 (4000 cells/well), A253 and SK-OV3 (both 2500 cells/well) cells were incubated with 100 μg/ml anti-TWEAKR antibodies or TWEAK ligand for the time periods as indicated in Table 27. All cells were seeded in the growth media indicated in Table 21 and for all cells except for WiDr cells 100 ng/ml IFNgamma was added to the assay medium when seeding the cells. The percentage of growth inhibition for treated cells as compared to proliferation in untreated control cells was measured and calculated as described above. As shown in Table 27 the antibodies of the current invention are more efficacious as compared to other known antibodies in inhibiting proliferation of various cancer cell lines at 100 μg/ml. In most experiments the antibodies of the current invention also show equal or stronger efficacy as compared to 100-300 ng/ml TWEAK ligand. Thus, the antibodies described in this invention are unique in their activity to induce apoptosis and proliferation inhibition in a broad panel of cancer cell lines.

SW480 cells = assay: Inhibition of proliferation (Cell Titer Glo); format: cell-based, human; details: 72h, 100 μg/ml antibody or *100 ng/ml TWEAK
Procedure: as §4, §5

NCI-H1975 cells = assay: Inhibition of proliferation (Cell Titer Glo); format: cell-based, human; details: 72h, 100 μg/ml antibody or *100 ng/ml TWEAK
Procedure: as §4, §5

TWEAKR = TWEAKR (Homo sapiens, UniProt Q9NP84); details: published data, read-out: KD / binding affinity to TWEAKR (published), cited from earlier work
[8] = molecular target: T1, TWEAKR(28-68)-HIS (TPP-1984) (Homo sapiens, UniProt Q9NP84); assay: ELISA with C-terminally truncated TWEAKR ectodomain; format: binding; details: coating 1 μg/ml; 0.08 and 0.3 μg/ml biotinylated IgG
T1 construct: Extracellular domain with C-terminal truncation (28-68) fused to HIS6 tag; made in house
Procedure: (§6) To analyze for binding, 1 μg/ml of the respective dimeric TWEAKR-Fc construct were coated and, 0.3 μg/ml and 0.08 μg/ml of biotinylated IgG were used as soluble binding partner. Detection was done with Streptavidin-HRP and Amplex-Red substrate. IgGs were biotinylated using an approximately 2-fold molar excess of biotin-LC-NHS (Pierce; Cat. No. 21347) according to manufacturer's instructions and desalted using Zeba desalting columns (Pierce; Cat. No. 89889).

[9] = molecular target: T2, TWEAKR-Fc fusion protein (TPP-2202), aa 28-80 (Homo sapiens, UniProt Q9NP84); assay: ELISA with TWEAKR full ectodomain; format: binding; details: coating 1 μg/ml; 0.08 and 0.3 μg/ml biotinylated IgG
T2 construct: the full ectodomain 28-80 including the N- and C-terminus; made in house
Source text: (§7) In a first approach to characterize the binding epitope of the aforementioned antibodies, a N- and C-terminal truncation mutant of the TWEAKR ectodomain was generated and tested for its ability to bind to the different anti-TWEAKR antibodies. N-terminally, amino acids 28 to 33 and C-terminally amino acids 69 to 80 were deleted, thus the cysteine rich domain with disulfide bridges between Cys36-Cys49, Cys52-Cys67 and Cys55-Cys64 remains intact (compare FIG. 2). Both constructs, the full ectodomain 28-80 including the N- and C-terminus and the truncated ectodomain 34-68 were expressed and purified as Fc fusion proteins TPP-2202 and TPP-2203, respectively.
as §6

[10] = molecular target: T3, TWEAKR protein (TPP-2305) (Homo sapiens, UniProt Q9NP84); assay: Biacore monovalent KD with TWEAKR protein; format: binding; details: first order 1:1 binding model
T3 construct: TPP-2305; hTNFRSF12Aaa28-80; Human; 30R-AT080; 168; purchased Fitzgerald Inc 30R-AT080
Procedure: Binding affinities of anti-TWEAKR antibodies were determined by surface plasmon resonance analysis on a Biacore T100 instrument (GE Healthcare Biacore, Inc.). Antibodies were immobilized onto a CM5 sensor chip through an indirect capturing reagent, anti-human IgG(Fc). Reagents from the “Human Antibody Capture Kit” (BR-1008-39, GE Healthcare Biacore, Inc.) were used as described by the manufacturer. Anti-TWEAKR antibodies were injected at a concentration of 10 μg/ml at 10 μl/min for 10 sec.
Sensorgrams were generated after in-line reference cell correction followed by buffer sample subtraction. The dissociation equilibrium constant (KD) was calculated based on the ratio of association (kon) and dissociation rated (koff) constants, obtained by fitting sensorgrams with a first order 1:1 binding model.

[11] = molecular target: T4, TWEAKR(34-68)-Fc fusion protein (TPP-2203) (Homo sapiens, UniProt Q9NP84); assay: ELISA with TWEAKR cysteine rich domain; format: binding; details: coating 1 μg/ml; 0.08 and 0.3 μg/ml biotinylated IgG
T4 construct: the truncated ectodomain 34-68 were expressed and purified as Fc fusion proteins; made in house
Source text: as §7, §6

ELISA binding to C-terminally truncated ectodomain (28-68) [8] | ELISA binding to full ectodomain (28-80) [9] | ka [10] [M⁻¹ s⁻¹] | kd [10] [s⁻¹] | ELISA binding to N- and C-terminally truncated construct (34-68) [11] | Molecule | Final T/C [1] | Final T/C [2] | Final T/C [3] | Final T/C [4] | Final T/C [5] | Final T/C [6] | Final T/C [7] | % Inhibition of proliferation (Lovo cells) [%] | % Inhibition of proliferation (SW480 cells) [%] | % Inhibition of proliferation (NCI-H1975 cells) [%] | Kd (TWEAKR; listed as BIIB036/P4A8) [nM] | Kd (TWEAKR) [nM]
 |  |  |  |  | O=c1[nH]cc(F)c(=O)[nH]1 [5-FU, 5-fluorouracil] | 0.48 | 0.45 | 0.28 | 0.97 |  |  |  |  |  |  |  | 
 |  |  |  |  | CCc1c2c(nc3ccc(OC(=O)N4CCC(N5CCCCC5)CC4)cc13)-c1cc3c(c(=O)n1C2)COC(=O)[C@]3(O)CC [Irinotecan] | 0.17 | 0.37 |  | 0.66 | 0.47 | 0.52 | 0.11 |  |  |  |  | 
 |  |  |  |  | O=C1[O][Pt]2([NH][C@@H]3CCCC[C@H]3[NH]2)[O]C1=O [Oxaliplatin, oxaliplatin] | 0.81 |  | 1.08 | 1.29 | 0.89 | 0.76 | 0.78 |  |  |  |  | 
impaired binding | saturated binding | 1.2e+06 | 0.0027 | impaired binding | P4A8(TPP-1324): reference agonistic anti-TWEAKR antibody, human IgG1, variable domains from WO2009/140177; SEQ ID NO 125/126 [reference compound] |  |  |  |  |  |  |  | −5 | 5 | 20 | 1.7 | 2.6

Reference: patent US20160237160A1, “ANTI-TWEAKR ANTIBODIES AND USES THEREOF” (BAYER PHARMA AKTIENGESELLSCHAFT, priority 2013, published 2016)
